The target of one test is HIV-1 protease (Human immunodeficiency virus type 1 group M subtype B, UniProt P04585). Nature of the test: Aspartyl protease assay, HIV-1 protease. Format: biochemical. The following applies: preincubated 30 minutes. Here is the method: (§1) Aspartyl Proteases. Assays with the following aspartyl proteases were performed: porcine pepsin, human cathepsin D, plasmepsin 2 (from P. falciparum), and the secreted aspartic proteinase 2 (SAP-2) from Candida albicans. The inhibitors were also assayed with HIV-1 protease. The inhibitors were preincubated for 30 minutes with HIV-1 protease and 20 minutes with the other enzymes. Substrate was then added and the substrate hydrolysis was monitored.

The next test has as its target plasmepsin 2 (Plasmodium falciparum, UniProt P46925). Put plainly: Aspartyl protease assay, plasmepsin 2. Format: biochemical. The settings on record: preincubated 20 minutes, pH 4.5. Here is the method: as §1
In the next test the target is porcine pepsin (Sus scrofa, UniProt P00791). Nature of the test: Aspartyl protease assay, pepsin. Format: biochemical. The following applies: preincubated 20 minutes, pH 3.5. Here is the method:
as §1

Test [1] addresses T1, cathepsin B (Homo sapiens, UniProt P07858). Put plainly: Inhibition of cathepsin B, incubation method. The following applies: pH 6; second-order rate constant; NI = no inhibition; read-out: kobs/[I] cathepsin B. Type of test: biochemical. The source says:
The release of 7-amino-4-methylcoumarin was monitored (λex=360 nm, λem=465 nm) using a Tecan Spectra Fluor microplate reader. Pseudo first-order inactivation rate constants were obtained from plots of In vt/vo versus time.

Test [2] concerns the target secreted aspartic proteinase 2 (SAP-2) (Candida albicans, UniProt P0DJ06). Put plainly: Aspartyl protease assay, SAP-2. Format: biochemical. The following applies: preincubated 20 minutes, pH 4.5. Here is the method:
as §1

Another test deals with granzyme B (Homo sapiens, UniProt P10144). Nature of the test: Granzyme B assay. Format: biochemical. The settings on record: preliminary assays, inhibitor 5 mM stock incubated 1 hour, substrate IETD-pNA. Here is the method:
Granzyme B. Assays with granzyme B were also performed. In the preliminary assays, the inhibitor (10 μL, 5 mM stock solution in DMSO) was incubated with granzyme B (90 μL) for 1 hour. After the incubation period, to these wells was added IETD-pNA (100 μL) and the rate was monitored at 405 nm.

In test [3] the target is T2, papain (Carica papaya, UniProt P00784).
T2 sequence (P00784 134-345): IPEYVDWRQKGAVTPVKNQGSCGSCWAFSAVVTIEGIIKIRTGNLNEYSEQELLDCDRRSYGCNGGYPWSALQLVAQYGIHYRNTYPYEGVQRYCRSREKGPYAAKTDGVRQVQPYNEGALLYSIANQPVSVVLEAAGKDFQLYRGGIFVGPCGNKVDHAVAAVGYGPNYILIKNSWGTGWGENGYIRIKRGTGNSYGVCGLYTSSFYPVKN
Nature of the test: Inhibition of papain, incubation method. Format: biochemical. The settings on record: pH 7.5; second-order rate constant; NI = no inhibition; read-out: kobs/[I] papain. In outline: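 Incubation-method inactivation: plots of ln vt/vo against time gave pseudo-first-order rate constants. Activity monitored at 405 nm with Z-Phe-Arg-pNA substrate (53.7 μM); papain at about 0.29 mg/mL in pH 7.5 Hepes (50 mM) containing DTT and EDTA (2.5 mM each).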

The target of the next test is human cathepsin D (Homo sapiens, UniProt P07339). Nature of the test: Aspartyl protease assay, cathepsin D. The following applies: preincubated 20 minutes, pH 3.5. Format: biochemical. As for the experimental part:
as §1

Another test concerns the target pepsin (Homo sapiens, UniProt P0DJD8). The settings on record: E-64; cited from earlier work.
The target of another test is DPPI (Homo sapiens, UniProt P53634). The following applies: E-64; cited from earlier work.
The next test has as its target thermolysin (Bacillus thermoproteolyticus, UniProt P00800). The settings on record: E-64; cited from earlier work.
In another test the target is stem bromelain (Ananas comosus, UniProt P14518). The following applies: E-64; cited from earlier work.
The target in test [4] is T1, cathepsin B. The settings on record: E-64; cited from earlier work.
The target of another test is cathepsin V (Homo sapiens, UniProt O60911). The settings on record: E-64; cited from earlier work.
Sequence of cathepsin V (O60911 114-334, species assumed): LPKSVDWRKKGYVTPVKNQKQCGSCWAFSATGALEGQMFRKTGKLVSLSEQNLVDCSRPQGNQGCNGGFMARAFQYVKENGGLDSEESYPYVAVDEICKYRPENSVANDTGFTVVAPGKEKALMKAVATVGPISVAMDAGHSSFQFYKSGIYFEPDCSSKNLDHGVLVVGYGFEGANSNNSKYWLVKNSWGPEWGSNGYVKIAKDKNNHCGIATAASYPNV
The subject of a further test is LDH. The following applies: E-64; cited from earlier work.
A further test deals with bleomycin hydrolase (Homo sapiens, UniProt Q13867). The following applies: E-64; cited from earlier work.
The target in another test is calpain II (Homo sapiens, UniProt P17655). The following applies: E-64; cited from earlier work.
Sequence of calpain II (P17655 whole entry): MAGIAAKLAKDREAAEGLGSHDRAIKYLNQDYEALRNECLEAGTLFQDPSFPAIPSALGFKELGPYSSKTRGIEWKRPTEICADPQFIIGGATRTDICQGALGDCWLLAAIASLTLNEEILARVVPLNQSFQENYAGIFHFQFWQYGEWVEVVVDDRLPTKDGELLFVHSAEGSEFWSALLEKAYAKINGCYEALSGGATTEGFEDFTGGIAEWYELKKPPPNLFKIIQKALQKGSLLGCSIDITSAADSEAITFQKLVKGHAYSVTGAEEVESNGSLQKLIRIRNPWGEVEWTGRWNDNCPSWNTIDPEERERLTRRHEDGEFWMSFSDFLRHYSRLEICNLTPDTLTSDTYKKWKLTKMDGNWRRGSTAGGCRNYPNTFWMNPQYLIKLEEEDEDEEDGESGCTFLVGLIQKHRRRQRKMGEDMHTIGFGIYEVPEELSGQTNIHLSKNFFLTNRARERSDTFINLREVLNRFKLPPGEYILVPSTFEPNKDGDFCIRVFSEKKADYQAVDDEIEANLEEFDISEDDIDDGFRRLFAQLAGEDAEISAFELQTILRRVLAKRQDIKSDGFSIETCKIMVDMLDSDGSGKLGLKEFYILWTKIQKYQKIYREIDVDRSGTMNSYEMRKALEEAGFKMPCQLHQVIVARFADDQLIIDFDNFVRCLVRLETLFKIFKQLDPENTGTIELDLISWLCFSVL
Sequence of calpain II (P04632 whole entry partner): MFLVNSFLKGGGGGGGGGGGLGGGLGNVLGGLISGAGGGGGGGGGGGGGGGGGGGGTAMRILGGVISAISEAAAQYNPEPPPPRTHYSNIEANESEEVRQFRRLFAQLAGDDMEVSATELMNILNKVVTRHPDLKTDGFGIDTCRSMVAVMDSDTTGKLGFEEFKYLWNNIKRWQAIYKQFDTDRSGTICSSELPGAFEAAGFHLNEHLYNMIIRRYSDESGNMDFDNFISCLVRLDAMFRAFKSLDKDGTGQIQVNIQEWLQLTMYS
The next test has as its system cathepsin J. The settings on record: E-64, rate not given; cited from earlier work.
The target in a further test is caspase 1 (ICE) (Homo sapiens, UniProt P29466). The following applies: E-64; cited from earlier work.
For a further test, the system named is elastase. The settings on record: E-64; cited from earlier work.
For the next test, the system named is kallikrein. The following applies: E-64; cited from earlier work.
For a further test, the target named is cathepsin S (Homo sapiens, UniProt P25774). The following applies: E-64; cited from earlier work.
A further test addresses plasmin (Homo sapiens, UniProt P00747). The following applies: E-64; cited from earlier work.
The target of another test is legumain (Homo sapiens, UniProt Q99538). The settings on record: E-64; cited from earlier work.
Another test deals with collagenase. The settings on record: E-64; cited from earlier work.
The next test has as its target cathepsin K (Homo sapiens, UniProt P43235). The following applies: E-64; cited from earlier work.
The test system of another test is ficin. The following applies: E-64; cited from earlier work.
The next test concerns the target vignain (Vigna mungo, UniProt P12412). The following applies: E-64; cited from earlier work.
The target of another test is cruzain (Trypanosoma cruzi, UniProt P25779). The following applies: E-64; cited from earlier work.
Sequence of cruzain (P25779 123-467): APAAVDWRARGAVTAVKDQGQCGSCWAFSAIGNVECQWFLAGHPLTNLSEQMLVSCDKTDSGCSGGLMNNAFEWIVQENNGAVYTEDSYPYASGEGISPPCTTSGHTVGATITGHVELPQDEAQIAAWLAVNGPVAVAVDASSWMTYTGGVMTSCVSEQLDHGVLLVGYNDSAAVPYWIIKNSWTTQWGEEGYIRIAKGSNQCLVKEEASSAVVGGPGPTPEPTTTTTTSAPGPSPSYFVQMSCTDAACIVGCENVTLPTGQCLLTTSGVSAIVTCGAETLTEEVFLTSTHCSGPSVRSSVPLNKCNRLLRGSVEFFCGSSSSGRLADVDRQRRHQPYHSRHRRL
The subject of the next test is cathepsin O. The following applies: E-64; cited from earlier work.
For test [5], the target named is T2, papain. The settings on record: E-64; cited from earlier work.
A further test addresses α-chymotrypsin (Bos taurus, UniProt P00766). The following applies: E-64; cited from earlier work.
The target in another test is cathepsin X (Homo sapiens, UniProt Q9UBR2). The following applies: E-64; cited from earlier work.
Sequence of cathepsin X (Q9UBR2 62-303): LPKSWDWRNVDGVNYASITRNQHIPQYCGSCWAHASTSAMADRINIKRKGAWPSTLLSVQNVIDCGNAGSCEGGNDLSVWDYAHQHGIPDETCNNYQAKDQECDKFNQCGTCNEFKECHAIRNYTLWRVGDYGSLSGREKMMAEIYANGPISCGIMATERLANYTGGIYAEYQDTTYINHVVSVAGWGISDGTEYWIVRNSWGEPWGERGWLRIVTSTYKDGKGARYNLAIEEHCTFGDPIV
The target in the next test is cathepsin H (Homo sapiens, UniProt P09668). The settings on record: E-64; cited from earlier work.
The target in the next test is papaya proteinase IV (Carica papaya, UniProt P05994). The following applies: E-64; cited from earlier work.
Sequence of papaya proteinase IV (P05994 133-348): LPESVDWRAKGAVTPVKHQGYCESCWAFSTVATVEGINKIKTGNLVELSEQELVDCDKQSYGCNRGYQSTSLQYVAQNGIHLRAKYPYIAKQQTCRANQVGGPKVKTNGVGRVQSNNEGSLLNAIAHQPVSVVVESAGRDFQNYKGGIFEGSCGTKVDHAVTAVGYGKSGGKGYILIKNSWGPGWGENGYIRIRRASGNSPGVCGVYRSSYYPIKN
The target of the next test is cathepsin F (Homo sapiens, UniProt Q9UBX1). The following applies: E-64, rate not given; cited from earlier work.
Sequence of cathepsin F (Q9UBX1 271-484, species assumed): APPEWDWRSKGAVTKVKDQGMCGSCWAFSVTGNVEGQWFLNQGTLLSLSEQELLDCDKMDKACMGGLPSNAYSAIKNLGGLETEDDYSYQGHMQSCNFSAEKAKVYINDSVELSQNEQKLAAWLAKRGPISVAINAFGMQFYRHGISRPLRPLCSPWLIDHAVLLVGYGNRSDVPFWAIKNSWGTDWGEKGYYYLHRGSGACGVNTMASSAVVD
A further test concerns the target fruit bromelain (Ananas comosus, UniProt O23791). The following applies: E-64; cited from earlier work.
In the next test the target is clostripain (Hathewaya histolytica, UniProt P09870). The following applies: E-64; cited from earlier work.
Sequence of clostripain (P09870 51-526): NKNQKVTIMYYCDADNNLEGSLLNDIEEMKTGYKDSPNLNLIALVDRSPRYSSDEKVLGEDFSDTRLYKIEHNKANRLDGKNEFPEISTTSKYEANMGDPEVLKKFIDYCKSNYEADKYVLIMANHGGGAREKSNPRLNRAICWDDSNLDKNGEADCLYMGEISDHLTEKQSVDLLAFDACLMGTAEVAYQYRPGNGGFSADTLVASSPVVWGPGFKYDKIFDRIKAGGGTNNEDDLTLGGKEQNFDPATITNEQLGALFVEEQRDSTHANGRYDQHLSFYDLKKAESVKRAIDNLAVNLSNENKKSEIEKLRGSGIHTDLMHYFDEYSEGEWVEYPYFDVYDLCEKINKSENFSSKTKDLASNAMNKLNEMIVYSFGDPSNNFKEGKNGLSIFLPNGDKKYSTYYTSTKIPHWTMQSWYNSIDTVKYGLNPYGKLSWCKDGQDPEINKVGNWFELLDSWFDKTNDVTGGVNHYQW
A further test concerns mold acid protease. The following applies: E-64; cited from earlier work.
The next test deals with T3, trypsin (Bos taurus, UniProt P00760).
T3 construct: gene PRSS1
The settings on record: E-64; cited from earlier work.

Another test addresses streptococcal proteinase (Streptococcus pyogenes, UniProt P0C0J0). The settings on record: cited from earlier work.
Another test concerns the target cathepsin L (Homo sapiens, UniProt P07711). The settings on record: E-64; cited from earlier work.

Sequence of cathepsin L (P07711 114-333, species assumed): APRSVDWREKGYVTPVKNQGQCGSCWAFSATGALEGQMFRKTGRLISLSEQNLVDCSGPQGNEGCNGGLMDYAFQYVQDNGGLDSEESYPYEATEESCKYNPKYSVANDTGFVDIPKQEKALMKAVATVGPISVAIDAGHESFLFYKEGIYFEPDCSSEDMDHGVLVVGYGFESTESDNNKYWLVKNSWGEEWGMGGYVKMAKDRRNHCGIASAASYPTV
Sequence of human cathepsin D (P07339 65-412): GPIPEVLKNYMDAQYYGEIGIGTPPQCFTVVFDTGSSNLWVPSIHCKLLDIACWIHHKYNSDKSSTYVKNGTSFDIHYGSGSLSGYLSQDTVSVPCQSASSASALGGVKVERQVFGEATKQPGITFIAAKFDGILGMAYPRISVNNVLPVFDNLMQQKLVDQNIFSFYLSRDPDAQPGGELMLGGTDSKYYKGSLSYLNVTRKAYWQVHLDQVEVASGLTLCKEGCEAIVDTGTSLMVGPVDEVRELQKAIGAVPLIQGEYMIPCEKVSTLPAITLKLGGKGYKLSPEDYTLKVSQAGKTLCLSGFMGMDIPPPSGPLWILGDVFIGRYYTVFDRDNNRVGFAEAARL
Sequence of plasmin (P00747 97-810, species assumed): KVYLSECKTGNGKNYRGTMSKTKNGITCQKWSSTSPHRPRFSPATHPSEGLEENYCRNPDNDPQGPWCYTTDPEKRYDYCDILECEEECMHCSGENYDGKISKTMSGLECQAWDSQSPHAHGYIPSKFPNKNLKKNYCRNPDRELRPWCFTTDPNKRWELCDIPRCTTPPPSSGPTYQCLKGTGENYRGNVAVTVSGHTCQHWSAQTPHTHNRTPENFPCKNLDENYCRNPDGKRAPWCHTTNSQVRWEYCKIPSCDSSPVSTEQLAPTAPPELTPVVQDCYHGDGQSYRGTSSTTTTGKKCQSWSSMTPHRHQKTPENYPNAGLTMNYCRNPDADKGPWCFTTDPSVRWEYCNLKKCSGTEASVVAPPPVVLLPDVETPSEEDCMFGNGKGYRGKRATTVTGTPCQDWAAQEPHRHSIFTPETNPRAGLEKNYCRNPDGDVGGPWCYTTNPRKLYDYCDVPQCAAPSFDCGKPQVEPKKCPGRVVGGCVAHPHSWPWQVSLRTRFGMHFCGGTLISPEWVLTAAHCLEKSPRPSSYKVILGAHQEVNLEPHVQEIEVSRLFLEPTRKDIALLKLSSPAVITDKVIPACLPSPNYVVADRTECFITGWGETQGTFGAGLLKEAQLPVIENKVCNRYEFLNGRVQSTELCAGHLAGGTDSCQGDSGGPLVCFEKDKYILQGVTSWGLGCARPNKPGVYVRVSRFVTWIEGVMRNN
Sequence of vignain (P12412 127-352): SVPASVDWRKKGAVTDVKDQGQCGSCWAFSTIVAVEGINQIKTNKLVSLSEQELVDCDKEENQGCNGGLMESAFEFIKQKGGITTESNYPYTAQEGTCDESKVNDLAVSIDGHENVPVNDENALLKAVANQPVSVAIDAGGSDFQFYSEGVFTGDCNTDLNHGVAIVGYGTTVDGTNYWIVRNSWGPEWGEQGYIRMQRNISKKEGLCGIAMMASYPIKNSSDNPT
Sequence of pepsin (P0DJD8 63-388): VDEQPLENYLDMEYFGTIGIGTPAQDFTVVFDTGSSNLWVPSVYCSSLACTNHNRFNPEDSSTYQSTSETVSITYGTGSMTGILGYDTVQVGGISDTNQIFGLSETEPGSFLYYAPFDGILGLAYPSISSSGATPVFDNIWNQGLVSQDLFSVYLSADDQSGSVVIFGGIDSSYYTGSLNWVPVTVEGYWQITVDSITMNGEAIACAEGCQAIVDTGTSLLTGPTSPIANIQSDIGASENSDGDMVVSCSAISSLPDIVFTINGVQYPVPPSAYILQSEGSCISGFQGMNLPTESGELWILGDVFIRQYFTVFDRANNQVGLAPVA
Sequence of streptococcal proteinase (P0C0J0 146-398 limits assumed): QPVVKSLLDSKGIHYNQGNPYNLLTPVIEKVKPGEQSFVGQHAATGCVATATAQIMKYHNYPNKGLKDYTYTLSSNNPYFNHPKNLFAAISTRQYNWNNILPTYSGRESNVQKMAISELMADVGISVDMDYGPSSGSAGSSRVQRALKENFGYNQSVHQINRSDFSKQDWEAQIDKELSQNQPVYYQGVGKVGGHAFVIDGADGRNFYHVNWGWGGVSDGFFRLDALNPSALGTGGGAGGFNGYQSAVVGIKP

In the case of `CCOC(=O)[C@H]1O[C@@H]1C(=O)N(CC(N)=O)NC(=O)[C@H](C)NC(=O)[C@H](C)NC(=O)OCc1ccccc1` [Cbz-Ala-Ala-AAsn-(2S, 3S)-EP-COOEt, (2S,3S)-3-(N^2-(N-Benzyloxycarbonylalanylalanyl)-N^1-carbamoylmethylhydrazinocarbonyl)oxirane-2-carboxylic Acid Ethyl Ester], the “inhibition of HIV-1 protease” value on HIV-1 protease was “less than 20%”. On plasmepsin 2, the “inhibition of plasmepsin 2” value is given as “less than 20%”. In addition, the “inhibition of porcine pepsin” value against porcine pepsin was “less than 20%”. In addition, the kinact/KI is 6 M⁻¹ s⁻¹ at cathepsin B [1] and 4 M⁻¹ s⁻¹ at papain [3]. In test [2], the “inhibition of SAP-2” value was “less than 20%”. The “inhibition of granzyme B” value at granzyme B is “no inhibition”. For the same molecule, the “inhibition of human cathepsin D” value on human cathepsin D was “less than 20%”.
Turning to `CC(C)C[C@H](NC(=O)[C@H]1O[C@@H]1C(=O)O)C(=O)NCCCCNC(=N)N` [E-64, N-(N-(L-3-trans-carboxyoxiran-2-carbonyl)-L-leucyl)agmatine], the “enzymes not inactivated: pepsin” value at pepsin is recorded as “pepsin”. Moreover, the “rate, DPPI” value on DPPI is 100 M⁻¹ s⁻¹. For the same molecule, the “enzymes not inactivated: thermolysin” value at thermolysin is listed as “thermolysin”. In addition, the “ID50, stem bromelain” value at stem bromelain is 0.025 (ID50). The “rate, cathepsin B” value at cathepsin B [4] was 89,400 M^−1 s^−1. Besides, the concentration for half-maximal inhibition (IC50) (commonly the concentration that inhibits the measured activity by half) at cathepsin V was greater than 100 nM; on bleomycin hydrolase it was greater than 160000 nM; in the test on cathepsin O it was greater than 100000 nM. Besides, in the test with LDH, the “enzymes not inactivated: LDH” value is given as “LDH”. In addition, the “rate, calpain II” value on calpain II was 7,500 M^−1 s^−1. Also, the “enzymes inactivated: cathepsin J” value with cathepsin J is reported as “cathepsin J”. In addition, the “enzymes not inactivated: caspase 1 (ICE)” value at caspase 1 (ICE) was “caspase 1 (ICE)”. Also, the “enzymes not inactivated: elastase” value in the test on elastase is “elastase”. Further, the “enzymes not inactivated: kallikrein” value with kallikrein is reported as “kallikrein”. Further, the “rate, cathepsin S” value on cathepsin S is 99,000 M^−1 s^−1. At plasmin, the “enzymes not inactivated: plasmin” value is reported as “plasmin”. Also, the “enzymes not inactivated: legumain” value at legumain is given as “legumain”. Also, the “enzymes not inactivated: collagenase” value in the test on collagenase is given as “collagenase”. At cathepsin K, the Ki (usually a dissociation constant, usually derived from enzyme kinetics or from competition with a known ligand) was 1.8 nM. Besides, the “ID50, ficin” value with ficin was 0.084 (ID50). Further, the “rate, vignain” value on vignain is reported as 32,500 M^−1 s^−1. Further, the “rate, cruzain” value on cruzain is 70,600 M^−1 s^−1. In addition, the “ID50, papain” value on papain [5] is 0.104 (ID50). Moreover, the “enzymes not inactivated: α-chymotrypsin” value on α-chymotrypsin was “α-chymotrypsin”. Also, at cathepsin X, the “rate, cathepsin X” value was 775 M⁻¹ s⁻¹. For the same molecule, the “rate, cathepsin H” value at cathepsin H is 4,000 M^−1 s^−1. Moreover, the “rate, papaya proteinase IV” value at papaya proteinase IV was 58,000 M^−1 s^−1. Further, at cathepsin F, the “enzymes inactivated: cathepsin F” value is given as “cathepsin F”. For the same molecule, the “ID50, fruit bromelain” value at fruit bromelain is reported as 0.110 (ID50). For the same molecule, at clostripain, the “enzymes not inactivated: clostripain” value is listed as “clostripain”. Also, the “enzymes not inactivated: mold acid protease” value with mold acid protease is given as “mold acid protease”. On trypsin, the “enzymes not inactivated: trypsin” value is “trypsin”. In addition, on streptococcal proteinase, the “rate, streptococcal proteinase” value was 624 M⁻¹ s⁻¹. Besides, the “rate, cathepsin L” value at cathepsin L is recorded as 96,250 M^−1 s^−1.

The values are drawn from patent publication US7056947B2, “Aza-peptide epoxides” (Georgia Tech Research Corp., priority 2002, dated 2006).
